Reference: US10322118B2, “Compounds and methods for inhibiting Cif virulence factor” (priority 2012, dated 2019)
Structures can show the parent of a compound that is named as a salt.

Key:
Cif [1] = molecular target: T1, Cif (Pseudomonas aeruginosa (strain UCBPP-PA14), UniProt A0A0H2ZD27); experiment: Primary high throughput screen with fluorogenic substrate CMNGC; type: biochemical; details: primary screen; test compounds at 10 μM, 1 μM Cif, 25 μM CMNGC, 60 minutes;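 note: fluorescence of 200 µL reactions in 96-well plates read on a plate reader, inhibitor at tenfold molar excess over Cif enzyme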
T1 sequence (A0A0H2ZD27 25-319 limits assumed): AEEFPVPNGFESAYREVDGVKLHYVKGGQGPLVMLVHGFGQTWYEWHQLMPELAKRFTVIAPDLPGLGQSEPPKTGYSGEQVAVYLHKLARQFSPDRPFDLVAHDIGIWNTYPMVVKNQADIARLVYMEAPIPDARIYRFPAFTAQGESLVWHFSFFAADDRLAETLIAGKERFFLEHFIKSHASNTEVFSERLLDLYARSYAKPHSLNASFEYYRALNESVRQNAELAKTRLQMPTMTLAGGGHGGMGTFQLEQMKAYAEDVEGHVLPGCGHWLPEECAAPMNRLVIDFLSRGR

Cif [2] = molecular target: T1, Cif; experiment: Secondary screen (sextuplicate) with fluorogenic substrate CMNGC; type: biochemical; details: for % Inhibition, Mean ± SD / % Inhibition, plate 1 / % Inhibition, plate 2 / % Inhibition, plate 3 / % Inhibition, plate 4 / % Inhibition, plate 5 / % Inhibition, plate 6: secondary screen, 10 μM; for % Inhibition, Mean ± SD: mean of six plates; for % Inhibition, plate 1: plate number 1; for % Inhibition, plate 2: plate number 2; for % Inhibition, plate 3: plate number 3; for % Inhibition, plate 4: plate number 4; for % Inhibition, plate 5: plate number 5; for % Inhibition, plate 6: plate number 6;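 for all read-outs here: purified enzyme assay in 96-well plates, 200 µL volume, fluorescence recorded each minute across a 60 min reaction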
[3] = read-out: % Inhibition, Mean ± SD
[4] = read-out: % Inhibition, plate 1
[5] = read-out: % Inhibition, plate 2
[6] = read-out: % Inhibition, plate 3
[7] = read-out: % Inhibition, plate 4
[8] = read-out: % Inhibition, plate 5
[9] = read-out: % Inhibition, plate 6

Structure (SMILES) | inhibition at 10 µM (Cif [1]) [%] | % Inhibition (Cif [1]) [%] | % Inhibition, Mean ± SD (Cif [2]) [%] | % Inhibition, plate 1 (Cif [2]) [%] | % Inhibition, plate 2 (Cif [2]) [%] | % Inhibition, plate 3 (Cif [2]) [%] | % Inhibition, plate 4 (Cif [2]) [%] | % Inhibition, plate 5 (Cif [2]) [%] | % Inhibition, plate 6 (Cif [2]) [%] | inhibition at 10 µM (Cif [2]; [3]) [%] | inhibition at 10 µM (Cif [2]; [4]) [%] | inhibition at 10 µM (Cif [2]; [5]) [%] | inhibition at 10 µM (Cif [2]; [6]) [%] | inhibition at 10 µM (Cif [2]; [7]) [%] | inhibition at 10 µM (Cif [2]; [8]) [%] | inhibition at 10 µM (Cif [2]; [9]) [%]
C[C@H]1O[C@H](O[C@H]2[C@H](O)[C@@H](O)[C@@H](O[C@H]3[C@H](O)[C@@H](O)C(O)O[C@@H]3CO)O[C@@H]2CO)[C@H](O)[C@@H](O)[C@@H]1N[C@H]1C=C(CO)[C@@H](O)[C@H](O)[C@H]1O (some centres unmarked) [Acarbose] | 47 |  |  |  |  |  |  |  |  |  |  |  |  |  |  | 
CC(=O)[C@@]12O[C@](C)(c3ccccc3)O[C@@H]1C[C@H]1[C@@H]3CCC4=CC(=O)CC[C@]4(C)[C@H]3CC[C@@]12C [Algestone acetophenide] |  | 38 | −3 ± 5 | −5 | −2 | 0 | −2 | 3 | −10 |  |  |  |  |  |  | 
O=C(CCCN1CCN(c2ccccn2)CC1)c1ccc(F)cc1 [Azaperone] | 79 |  |  |  |  |  |  |  |  |  |  |  |  |  |  | 
CN1CCCC(n2nc(Cc3ccc(Cl)cc3)c3ccccc3c2=O)CC1 (centres unmarked) [Azelastine hydrochloride] | 48 |  |  |  |  |  |  |  |  | 34 ± 4 | 30 | 31 | 33 | 34 | 42 | 30
C[N+](C)(C)CC(=O)O [Betaine hydrochloride] | 33 |  |  |  |  |  |  |  |  | 13 ± 6 | 6 | 10 | 9 | 17 | 20 | 18
O=C1CC2(CCCC2)CC(=O)N1CCCCN1CCN(c2ncccn2)CC1 [Buspirone hydrochloride] | 33 |  |  |  |  |  |  |  |  | -3 ± 4 | 0 | -3 | 0 | -1 | -2 | -11
C[C@]12CCC(=O)C=C1C=C[C@@H]1[C@@H]2CC[C@@]2(C)[C@H]1CC[C@@]21CCC(=O)O1 [Canrenone] | 36 |  |  |  |  |  |  |  |  | 24 ± 5 | 16 | 27 | 20 | 24 | 28 | 27
CO[C@@]1(NC(=O)Cc2cccs2)C(=O)N2C(C(=O)O)=C(COC(N)=O)CS[C@@H]21 [Cefoxitin sodium] | 32 |  |  |  |  |  |  |  |  | 10 ± 8 | -3 | 16 | 5 | 9 | 19 | 14
CCCCCCCCCCCCCCCC[N+](C)(C)C.[Br-] [Cetrimonium bromide] |  | 44 | 2 ± 4 | 1 | −1 | −4 | 3 | 8 | 2 |  |  |  |  |  |  | 
Nc1nc(Cl)nc2c1ncn2[C@@H]1O[C@H](CO)[C@@H](O)[C@@H]1F [Clofarabine] | 43 |  |  |  |  |  |  |  |  | 12 ± 5 | 7 | 8 | 7 | 13 | 20 | 16
CN(C)CCCN1c2ccccc2CCc2ccc(Cl)cc21 [Clomipramine hydrochloride] | 51 |  |  |  |  |  |  |  |  | 5 ± 4 | 0 | 3 | 9 | 3 | 9 | 7
C[C@@H]1C[C@H]2[C@@H]3CCC4=CC(=O)C=C[C@]4(C)[C@@]3(F)[C@@H](O)C[C@]2(C)[C@H]1C(=O)CO [Desoxymetasone] |  | 66 | 39 ± 4 | 34 | 42 | 34 | 40 | 42 | 41 |  |  |  |  |  |  | 
COC(=O)/C=C/C(=O)OC [Dimethyl fumarate] | 36 |  |  |  |  |  |  |  |  | 5 ± 4 | 3 | -2 | 8 | 7 | 9 | 6
CC1=NN(c2ccccc2)C(=O)C1 [Edaravone] | 43 |  |  |  |  |  |  |  |  | 16 ± 7 | 21 | 13 | 13 | 26 | 19 | 6
CCOC(=O)[C@H](CCc1ccccc1)N[C@@H](C)C(=O)N1CCC[C@H]1C(=O)O [Enalapril maleate] | 31 |  |  |  |  |  |  |  |  | 4 ± 8 | -6 | 13 | 1 | 9 | 10 | -3
C[C@]12CC[C@H]3C(=CCc4cc(O)ccc43)[C@@H]1CCC2=O [Equilin] | 71 |  |  |  |  |  |  |  |  |  |  |  |  |  |  | 
C[C@]12CC[C@@H]3c4ccc(O)cc4CC[C@H]3[C@@H]1CC[C@@H]2O [Estradiol] | 39 |  |  |  |  |  |  |  |  | 4 ± 5 | 4 | 5 | 5 | 6 | 8 | -6
C=CCc1ccc(O)c(OC)c1 [Eugenol] | 32 |  |  |  |  |  |  |  |  | 3 ± 4 | 4 | 0 | 7 | 4 | 6 | -4
Cc1c(Nc2ncccc2C(=O)O)cccc1C(F)(F)F [Flunixin meglumine] | 32 |  |  |  |  |  |  |  |  | 14 ± 5 | 13 | 15 | 14 | 18 | 19 | 4
CC(=O)[C@@]1(O)CC[C@H]2[C@@H]3C[C@H](C)C4=CC(=O)C=C[C@]4(C)[C@@]3(F)[C@@H](O)C[C@@]21C [Fluorometholone] | 31 |  |  |  |  |  |  |  |  | 18 ± 2 | 18 | 15 | 19 | 16 | 21 | 16
CC(O)CN1CCN(CC(=O)[O-])CCN(CC(=O)[O-])CCN(CC(=O)[O-])CC1.[Gd+3] (centres unmarked) [Gadoteridol] |  | 34 | 11 ± 5 | 7 | 3 | 10 | 13 | 16 | 15 |  |  |  |  |  |  | 
CC(C)Cc1ccc(C(C)C(=O)O)cc1 (centres unmarked) [Ibuprofen] | 48 |  |  |  |  |  |  |  |  | 7 ± 5 | 1 | 6 | 5 | 8 | 15 | 7
CC(C(=O)O)c1cccc(C(=O)c2ccccc2)c1 (centres unmarked) [Ketoprofen] | 34 |  |  |  |  |  |  |  |  | 9 ± 5 | 2 | 14 | 9 | 8 | 15 | 4
Cc1cccc(Nc2ccccc2C(=O)O)c1C [Mefenamic acid] | 48 |  |  |  |  |  |  |  |  | 16 ± 8 | 5 | 24 | 17 | 22 | 20 | 6
O=C([O-])c1ccccc1-c1c2cc(Br)c(=O)cc-2oc2[c]([Hg+])c([O-])c(Br)cc12.[Na+].[Na+].[OH-] [Merbromin] |  | 47 |  |  |  |  |  |  |  |  |  |  |  |  |  | 
S=c1nc[nH]c2nc[nH]c12 [Mercaptopurine] | 32 |  |  |  |  |  |  |  |  | 13 ± 5 | 5 | 15 | 19 | 15 | 15 | 11
CCCCCCCCCCCCCCCCOP(=O)([O-])OCC[N+](C)(C)C [Miltefosine] | 34 |  |  |  |  |  |  |  |  | 8 ± 4 | 4 | 3 | 11 | 10 | 11 | 11
Cc1nccnc1N1CCCCC1 [Modaline sulfate] | 34 |  |  |  |  |  |  |  |  | 12 ± 3 | 10 | 7 | 12 | 12 | 13 | 17
NCC(O)c1ccc(O)cc1 (centres unmarked) [Octopamine hydrochloride] | 42 |  |  |  |  |  |  |  |  | 11 ± 6 | 1 | 6 | 12 | 9 | 18 | 17
Nc1nc2c(ncn2CCC(CO)CO)c(=O)[nH]1 [Penciclovir] | 45 |  |  |  |  |  |  |  |  | 0 | -11 | 1 | 2 | 3 | 7 | -3
